In the supplement of paper PMC11061612:

Experiments:
Experiment in all cases: combination Emax (second highest fraction inhibited in the dose matrix, 72 h); higher = more inhibition; extreme values may be limits of the assay
[1] = system: CAL-62 (Thyroid Gland Carcinoma)
Method in brief: (§1)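 After 24 hours at 37°C and 5% CO2 in 1536-well plates, cells in DMEM/F12 or RPMI plus 10% FBS received two-drug dose matrices for 72 hours. Viability came from CellTiter-Glo 2.0 luminescence and was scaled as inhibition, anchored at 0 by vehicle wells and at 1 by blank wells. Combination Emax is taken as the second-highest inhibition in the matrix, and Bliss excess as the observed combination effect less EA + EB − EA·EB, with EA and EB the single-agent effects.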

[2] = system: HSC-39 (Gastric Carcinoma)
Method in brief: as §1

IST-MES1 (Mesothelioma) = system: IST-MES1 (Mesothelioma)
Method in brief: as §1

[3] = system: LK-2 (Squamous Cell Lung Carcinoma)
Method in brief: as §1

[4] = system: MFE-280 (Endometrial Carcinoma)
Method in brief: as §1

[5] = system: MKN45 (Gastric Carcinoma)
Method in brief: as §1

NB12 (Neuroblastoma) = system: NB12 (Neuroblastoma)
Method in brief: as §1

[6] = system: NCI-H2342 (Lung Adenocarcinoma)
Method in brief: as §1

[7] = system: OPM-2 (Plasma Cell Myeloma)
Method in brief: as §1

[8] = system: OVMIU (Ovarian Carcinoma)
Method in brief: as §1

[9] = system: PANC-03-27 (Pancreatic Carcinoma)
Method in brief: as §1

[10] = system: PSN1 (Pancreatic Carcinoma)
Method in brief: as §1

[11] = system: RCM-1 (Colorectal Carcinoma)
Method in brief: as §1

[12] = system: REH (B-Lymphoblastic Leukemia)
Method in brief: as §1

[13] = system: RKN (Other Solid Carcinomas)
Method in brief: as §1

SF539 (Glioblastoma) = system: SF539 (Glioblastoma)
Method in brief: as §1

SK-MEL-2 (Melanoma) = system: SK-MEL-2 (Melanoma)
Method in brief: as §1

[14] = system: SK-PN-DW (Other Solid Carcinomas)
Method in brief: as §1

[15] = system: TE-8 (Esophageal Squamous Cell Carcinoma)
Method in brief: as §1

[16] = system: VAL (B-Cell Non-Hodgkin's Lymphoma)
Method in brief: as §1

CC1(C)CCC(CN2CCN(c3ccc(C(=O)NS(=O)(=O)c4ccc(NCC5CCOCC5)c([N+](=O)[O-])c4)c(Oc4cnc5[nH]ccc5c4)c3)CC2)=C(c2ccc(Cl)cc2)C1 [Venetoclax] + CS(=O)(=O)CCNCc1ccc(-c2ccc3ncnc(Nc4ccc(OCc5cccc(F)c5)c(Cl)c4)c3c2)o1 [Lapatinib] (first compound max 1 µM, 7x7, partner max 10 µM)
combination Emax [1]: 0.114
combination Emax [2]: 0.915
combination Emax (IST-MES1 (Mesothelioma)): 0.313
combination Emax [3]: 0.31
combination Emax [4]: 0.255
combination Emax [5]: 0.242
combination Emax (NB12 (Neuroblastoma)): 0.915
combination Emax [6]: 0.183
combination Emax [7]: 0.64
combination Emax [8]: 0.607
combination Emax [9]: 0.5
combination Emax [10]: 0.177
combination Emax [11]: 0.42
combination Emax [12]: 0.916
combination Emax [13]: 0.171
combination Emax (SF539 (Glioblastoma)): 0.309
combination Emax (SK-MEL-2 (Melanoma)): 0.174
combination Emax [14]: 0.455
combination Emax [15]: 0.263
combination Emax [16]: 1
